Test results reported in PubChem BioAssay (NCI).
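Briefly, cells in 96-well plates were exposed to five compound concentrations for 48 h, and endpoints were estimated by linear interpolation. GI50 marks 50% less growth. TGI denotes the concentration required for complete inhibition of growth.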

Experiments:
Test in all cases: growth of human tumour cells (NCI), 48 h
HCT-15 colon = system: HCT-15 colon
HOP-62 NSCLC = system: HOP-62 NSCLC
MALME-3M melanoma = system: MALME-3M melanoma
MCF7 breast = system: MCF7 breast
T-47D breast = system: T-47D breast
UACC-257 melanoma = system: UACC-257 melanoma
UACC-62 melanoma = system: UACC-62 melanoma
HCC-2998 colon = system: HCC-2998 colon
LOX IMVI melanoma = system: LOX IMVI melanoma
SK-MEL-2 melanoma = system: SK-MEL-2 melanoma

SMILES | TGI (HCT-15 colon) | TGI (HOP-62 NSCLC) | TGI (MALME-3M melanoma) | TGI (MCF7 breast) | TGI (T-47D breast) | TGI (UACC-257 melanoma) | TGI (UACC-62 melanoma) | TGI (HCC-2998 colon) | TGI (LOX IMVI melanoma) | TGI (SK-MEL-2 melanoma) | GI50 (MALME-3M melanoma)
COc1cccc2c1OC(c1cccc3ccccc13)C([N+](=O)[O-])=C2 (stereo unspecified) | 3.8 µM | 5.36 µM | 4.08 µM | 2.65 µM | 5.69 µM | 4.42 µM | 2.35 µM |  |  |  | 
CN(C)Cc1cc(C(=O)/C=C/c2ccc([N+](=O)[O-])cc2)cc(CN(C)C)c1O | 25.1 µM | 19.5 µM |  | 34.9 µM | 32 µM | 33.6 µM | 33.3 µM | 32.5 µM | 5.5 µM | 30.1 µM | 
CC(C(=O)COCc1ccccc1)P1(=O)OC(C)(C)CN1C(C)(C)C (stereo unspecified) | > 100 µM | > 100 µM |  | > 100 µM | > 100 µM | > 100 µM | > 100 µM | > 100 µM | > 100 µM |  | 
O=C(NN1C(=O)CS(=O)(=O)C1c1ccc(C(F)(F)F)cc1)c1ccncc1 (stereo unspecified) | > 100 µM | > 100 µM | > 100 µM |  |  | > 100 µM |  | > 100 µM | > 100 µM | > 100 µM | 
CC1(C)CCc2c(ccc(C(=O)/C=C/c3ccc(O)cc3)c2O)O1 | 20.5 µM | 19.4 µM | 16.3 µM | 29.4 µM | 21 µM | 23.4 µM | 19.6 µM |  | 19.8 µM | 23.5 µM | 
COc1cc(C=O)ccc1O | > 100 µM | > 100 µM | > 100 µM | > 100 µM | > 100 µM | > 100 µM |  | > 100 µM | > 100 µM |  | 
Cn1c2ccccc2c2c(=S)c3ccccc3ccc21 | > 100 µM | > 100 µM | > 100 µM | > 100 µM | > 100 µM | > 100 µM | > 100 µM | > 100 µM | > 100 µM |  | 
COc1ccc(CC(N)=O)cc1OC | > 1250 µM | > 1250 µM | > 1250 µM | > 1250 µM |  | > 580 µM | > 1250 µM | > 1250 µM | > 1250 µM | > 1250 µM | 
CCOC(=O)CNC(=O)NC12CC3CC(CC(C3)C1)C2 | > 550 µM | > 502 µM | 420 µM | 505 µM |  | 477 µM | 416 µM | 319 µM | > 550 µM | 372 µM | 
O=C(NCCCl)O/N=C/c1cccnc1 | > 100 µM | > 100 µM | > 100 µM | > 100 µM |  | > 100 µM | > 100 µM | > 100 µM | > 100 µM | > 100 µM | 89.5 µM
CC(C)C1=CC23CCC4C(C)(C(=O)O)CCCC4(C)C2CC1C1C(=O)N(CCCCCCN2C(=O)C4C5CC6C7(C)CCCC(C)(C(=O)O)C7CCC6(C=C5C(C)C)C4C2=O)C(=O)C13 (stereo unspecified) | 30.4 µM |  | 31.2 µM | 21.7 µM | 41.5 µM |  | > 100 µM | 27.1 µM |  | 28.2 µM | 
COC1OC2COC(c3ccccc3)OC2C(O)C1OC(=S)c1ccccc1 (stereo unspecified) | > 100 µM | 91.4 µM | 71.6 µM | > 100 µM | 85 µM | > 100 µM | > 100 µM |  | 21.4 µM | > 100 µM | 
